Values after ≈ are worked out from the molar mass of the structure shown.
Key:
Assay type in all cases: cell-based
[1] = system: Staphylococcus aureus (ATCC-849); test: MIC by agar dilution against Staphylococcus aureus; details: for MIC: ATCC849
[2] = system: Methicillin Resistant Staphylococcus aureus (ATCC-919); test: MIC by agar dilution against methicillin-resistant Staphylococcus aureus; details: for MIC: ATCC 919 / MRSA
[3] = system: Live Vaccine Strain of Francisella tularensis; test: microbe, parasite or virus in culture

| SMILES | MIC [1] | MIC [2] | MIC [3] | MIC S.A. [1] | MIC MRSA [2] |
| --- | --- | --- | --- | --- | --- |
| C=CCN(CC=C)SSN(CC=C)CC=C [XIX] | 1 µg/mL (≈ 3.9 µM) | 0.5 µg/mL (≈ 1.95 µM) | 16 µg/mL (≈ 62.4 µM) | – | – |
| CCCCSSSSCCCC [XIII] | 64 µg/mL (≈ 264 µM) | 32 µg/mL (≈ 132 µM) | 4 µg/mL (≈ 16.5 µM) | – | – |
| c1ccc(OSSOc2ccccc2)cc1 [V] | 2 µg/mL (≈ 7.99 µM) | 2 µg/mL (≈ 7.99 µM) | 1 µg/mL (≈ 3.99 µM) | – | – |
| c1ccc(NSSNc2ccccc2)cc1 [X] | 4 µg/mL (≈ 16.1 µM) | 4 µg/mL (≈ 16.1 µM) | 0.5 µg/mL (≈ 2.01 µM) | – | – |
| CC1(C)S[C@@H]2[C@H](NC(=O)Cc3ccccc3)C(=O)N2[C@H]1C(=O)O [Penicillin G, reference compound] | – | – | – | 0.125 µg/mL (≈ 0.374 µM) | 16 µg/mL (≈ 47.8 µM) |
| CCN(CC)SSN(CC)CC [XVII] | 2 µg/mL (≈ 9.6 µM) | 2 µg/mL (≈ 9.6 µM) | 16 µg/mL (≈ 76.8 µM) | – | – |
| CCN(SSN(C(C)C)C(C)C)C(C)C [XVIII] | 2 µg/mL (≈ 7.98 µM) | 1 µg/mL (≈ 3.99 µM) | 32 µg/mL (≈ 128 µM) | – | – |
| CCCNSSNCCC [VI] | 8 µg/mL (≈ 44.4 µM) | 4 µg/mL (≈ 22.2 µM) | 16 µg/mL (≈ 88.7 µM) | – | – |
| CCC(C)OSSOC(C)CC (stereo not drawn) [IV] | 16 µg/mL (≈ 76.1 µM) | 8 µg/mL (≈ 38 µM) | 16 µg/mL (≈ 76.1 µM) | – | – |
| CCCCOSSOCCCC [III] | 0.25 µg/mL (≈ 1.19 µM) | 8 µg/mL (≈ 38 µM) | 4 µg/mL (≈ 19 µM) | – | – |
| CCC(C)SSSSC(C)CC (stereo not drawn) [XIV] | 32 µg/mL (≈ 132 µM) | 64 µg/mL (≈ 264 µM) | 16 µg/mL (≈ 66 µM) | – | – |
| CC(C)CN(CC(C)C)SSN(CC(C)C)CC(C)C [XX] | 16 µg/mL (≈ 49.9 µM) | 16 µg/mL (≈ 49.9 µM) | 1 µg/mL (≈ 3.12 µM) | – | – |
| CCC(C)NSSNC(C)CC (stereo not drawn) [IX] | 16 µg/mL (≈ 76.8 µM) | 16 µg/mL (≈ 76.8 µM) | 8 µg/mL (≈ 38.4 µM) | – | – |
| CCCSSSSCCC [XI] | 32 µg/mL (≈ 149 µM) | 32 µg/mL (≈ 149 µM) | 1 µg/mL (≈ 4.66 µM) | – | – |
| O=C(O)c1cn(C2CC2)c2cc(N3CCNCC3)c(F)cc2c1=O [Ciprofloxacin, reference compound] | – | – | 16 µg/mL (≈ 48.3 µM) | – | – |
| c1ccc(SSSSc2ccccc2)cc1 [XV] | 8 µg/mL (≈ 28.3 µM) | 8 µg/mL (≈ 28.3 µM) | 2 µg/mL (≈ 7.08 µM) | – | – |
| CCCCNSSNCCCC [VIII] | 8 µg/mL (≈ 38.4 µM) | 32 µg/mL (≈ 154 µM) | 4 µg/mL (≈ 19.2 µM) | – | – |
| CC(C)SSSSC(C)C [XII] | 32 µg/mL (≈ 149 µM) | 32 µg/mL (≈ 149 µM) | 8 µg/mL (≈ 37.3 µM) | – | – |
| CC(C)NSSNC(C)C [VII] | 32 µg/mL (≈ 177 µM) | 32 µg/mL (≈ 177 µM) | 2 µg/mL (≈ 11.1 µM) | – | – |
| CC(C)OSSOC(C)C [II] | 1 µg/mL (≈ 5.49 µM) | 0.5 µg/mL (≈ 2.74 µM) | 4 µg/mL (≈ 21.9 µM) | – | – |
| CCCOSSOCCC [I] | 32 µg/mL (≈ 176 µM) | 32 µg/mL (≈ 176 µM) | 16 µg/mL (≈ 87.8 µM) | – | – |
| CN(C)SSN(C)C [XVI] | 0.25 µg/mL (≈ 1.64 µM) | 0.5 µg/mL (≈ 3.28 µM) | 8 µg/mL (≈ 52.5 µM) | – | – |

Reference: patent publication US10350177B2, “Antibacterial S-heterosubstituted disulfides” (priority 2007, dated 2019)
